Assay results: ChEMBL document CHEMBL4417631, “Oral peptide inhibitors of interleukin-23 receptor and their use to treat inflammatory bowel diseases” (2017)
Where a SMILES comes first, the peptide text is derived from it.

Target: T1, Interleukin-23 receptor (Homo sapiens, UniProt Q5VWK5)
T1 sequence (Q5VWK5 whole entry): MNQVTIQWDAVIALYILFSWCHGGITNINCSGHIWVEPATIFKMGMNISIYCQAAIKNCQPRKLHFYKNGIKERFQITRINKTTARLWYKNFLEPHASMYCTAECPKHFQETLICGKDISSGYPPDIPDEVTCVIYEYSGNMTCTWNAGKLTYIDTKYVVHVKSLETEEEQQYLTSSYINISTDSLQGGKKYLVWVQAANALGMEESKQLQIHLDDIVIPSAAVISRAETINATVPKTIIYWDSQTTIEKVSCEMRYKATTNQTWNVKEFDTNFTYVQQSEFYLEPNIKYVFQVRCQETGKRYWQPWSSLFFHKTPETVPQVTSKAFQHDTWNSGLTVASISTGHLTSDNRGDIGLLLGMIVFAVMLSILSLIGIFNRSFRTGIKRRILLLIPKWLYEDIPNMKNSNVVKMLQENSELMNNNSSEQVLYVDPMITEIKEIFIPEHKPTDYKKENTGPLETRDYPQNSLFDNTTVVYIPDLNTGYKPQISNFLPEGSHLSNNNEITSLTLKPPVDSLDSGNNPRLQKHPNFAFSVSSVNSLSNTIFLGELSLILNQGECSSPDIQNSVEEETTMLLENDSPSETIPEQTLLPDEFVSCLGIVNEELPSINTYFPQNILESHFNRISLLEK
Assay: Inhibition of interleukin-23 binding to human interleukin-23 receptor incubated for 2 hrs by competitive binding ELISA

Structure (SMILES)	IC50
CC(C)[C@H](NC(=O)C[C@H](Cc1c[nH]c2ccccc12)NC(=O)[C@H](CC(=O)O)NC(=O)[C@H](C)NC(=O)[C@@H](N)CS)C(=O)N[C@@H](CS)C(=O)N[C@@H](Cc1ccc(O)cc1)C(=O)N[C@@H](Cc1c[nH]c2ccccc12)C(=O)N[C@@H](Cc1cnc[nH]1)C(=O)N[C@H](C(=O)N[C@@H](Cc1ccccc1)C(=O)NCC(N)=O)[C@@H](C)O	> 1000 nM
CC(=O)N[C@@H](CS)C(=O)N[C@@H](CCCNC(=N)N)C(=O)N[C@@H](CC(=O)O)C(=O)N[C@@H](Cc1c[nH]c2ccccc12)C(=O)N[C@@H](CCC(N)=O)C(=O)N[C@@H](CS)C(=O)N[C@@H](Cc1ccc(O)cc1)C(=O)N[C@@H](Cc1c[nH]c2ccccc12)C(=O)N(C)[C@@H](CCCNC(=N)N)C(=O)N[C@@H](CCCCN)C(=O)N[C@@H](Cc1ccccc1)C(=O)NCC(=O)NCCOCCC(=O)N[C@H](CCCCN)C(N)=O	> 1000 nM
CC(=O)N[C@@H](CS)C(=O)N[C@@H](CCC(N)=O)C(=O)N[C@H](C(=O)N[C@@H](Cc1c[nH]c2ccccc12)C(=O)N[C@@H](CCC(N)=O)C(=O)N[C@@H](CS)C(=O)N[C@@H](Cc1ccc(O)cc1)C(=O)N[C@@H](Cc1c[nH]c2ccccc12)C(=O)N[C@@H](CCCNC(=N)N)C(=O)N(C)[C@@H](CCCNC(=N)N)C(=O)N[C@@H](CC(N)=O)C(=O)NCC(=O)NCCOCC(=O)N[C@H](CCCCN)C(N)=O)[C@@H](C)O	> 1000 nM
CC(=O)N[C@@H](CS)C(=O)N[C@@H](CCC(N)=O)C(=O)N[C@H](C(=O)N[C@@H](Cc1c[nH]c2ccccc12)C(=O)N[C@@H](CCC(N)=O)C(=O)N[C@@H](CS)C(=O)N[C@@H](Cc1ccc(O)cc1)C(=O)N1Cc2ccccc2C[C@H]1CC(=O)N[C@@H](CCCNC(=N)N)C(=O)N[C@H](C(=O)N[C@@H](CC(N)=O)C(=O)NCC(=O)NCCOCC(=O)N[C@H](CCCCN)C(N)=O)C(C)C)[C@@H](C)O	> 30000 nM
CC(=O)N[C@@H](CS)C(=O)N[C@@H](CCCNC(=N)N)C(=O)N[C@H](C(=O)N[C@@H](Cc1c[nH]c2ccccc12)C(=O)N[C@@H](CCC(N)=O)C(=O)N[C@@H](CS)C(N)=O)[C@@H](C)O (Ac-CRTWQC-NH2)	> 30000 nM
CC(C)[C@H](NC(=O)[C@H](Cc1c[nH]c2ccccc12)NC(=O)[C@H](CC(=O)O)NC(=O)[C@H](C)NC(=O)[C@@H](N)CS)C(=O)N[C@@H](CS)C(=O)N[C@@H](Cc1ccc(O)cc1)C(=O)N[C@@H](Cc1cccc2ccccc12)C(=O)N[C@@H](Cc1cnc[nH]1)C(=O)N[C@H](C(=O)N(C)[C@@H](Cc1ccccc1)C(N)=O)[C@@H](C)O	> 1000 nM
CC(C)[C@H](NC(=O)[C@H](Cc1c[nH]c2ccccc12)NC(=O)[C@H](CC(=O)O)NC(=O)[C@H](C)NC(=O)[C@@H](N)CS)C(=O)N[C@@H](CS)C(=O)N[C@@H](Cc1ccc(O)cc1)C(=O)N[C@@H](Cc1cccc2ccccc12)C(=O)N[C@@H](Cc1cnc[nH]1)C(=O)N[C@H](C(=O)N[C@@H](Cc1ccccc1)C(=O)NCC(N)=O)[C@@H](C)O	500 to 1000 nM
CC(=O)N[C@@H](CS)C(=O)N[C@@H](CCC(N)=O)C(=O)N[C@H](C(=O)N[C@@H](Cc1c[nH]c2ccccc12)C(=O)N[C@@H](CCC(N)=O)C(=O)N[C@@H](CS)C(=O)N[C@@H](Cc1ccc(O)cc1)C(=O)N[C@@](C)(Cc1c[nH]c2ccccc12)C(=O)N[C@@H](CCC(C)C)C(=O)N[C@@H](CCC(=O)O)C(=O)N[C@@H](CCC(N)=O)C(=O)NCC(N)=O)[C@@H](C)O	> 30000 nM

Now from value to compound:

IC50	Structure (SMILES)
97 to 239 nM	CC(=O)N[C@@H](CS)C(=O)N[C@@H](CCC(N)=O)C(=O)N[C@H](C(=O)N[C@@H](Cc1c[nH]c2ccccc12)C(=O)N[C@@H](CCC(N)=O)C(=O)N[C@@H](CS)C(=O)N[C@@H](Cc1ccc(O)cc1)C(=O)N[C@@H](Cc1c[nH]c2ccccc12)C(=O)N[C@@H](CCC(C)C)C(=O)N[C@@H](CCC(=O)O)C(=O)N[C@@H](CC(N)=O)C(=O)NCC(=O)N1CCC[C@H]1C(N)=O)[C@@H](C)O
100 to 1000 nM	CC(=O)N[C@@H](CS)C(=O)N[C@@H](C)C(=O)N[C@@H](CC(=O)O)C(=O)N[C@@H](Cc1c[nH]c2ccccc12)C(=O)N[C@H](C(=O)N[C@@H](CS)C(=O)N[C@@H](Cc1ccc(O)cc1)C(=O)N[C@@H](Cc1c[nH]c2ccccc12)C(=O)N[C@@H](Cc1cnc[nH]1)C(=O)N[C@H](C(=O)N[C@@H](Cc1ccccc1)C(=O)NCC(=O)N[C@@H](C)C(=O)N1CC[C@H]1C(=O)N[C@H](CCCCN)C(=O)O)[C@@H](C)O)C(C)C
500 to 1000 nM	CC(=O)N[C@@H](CC(=O)O)C(=O)N[C@H](C(=O)N1CCC[C@H]1C(=O)N[C@@H](CCCNC(=N)N)C(=O)N[C@@H](CS)C(=O)N[C@@H](CCCNC(=N)N)C(=O)N[C@H](C(=O)N[C@@H](Cc1c[nH]c2ccccc12)C(=O)N[C@@H](CCC(=O)O)C(=O)N[C@@H](CS)C(=O)N[C@@H](Cc1ccc(O)cc1)C(=O)N[C@@H](Cc1c[nH]c2ccccc12)C(=O)N[C@@H](Cc1cnc[nH]1)C(=O)N[C@H](C(=O)N[C@@H](Cc1ccccc1)C(=O)NCC(N)=O)[C@@H](C)O)[C@@H](C)O)[C@@H](C)O
< 500 nM	CC(=O)N[C@@H](CS)C(=O)N[C@@H](CCC(N)=O)C(=O)N[C@H](C(=O)N[C@@H](Cc1c[nH]c2ccccc12)C(=O)N[C@@H](CCC(N)=O)C(=O)N[C@@H](CS)C(=O)N[C@@H](Cc1ccc(O)cc1)C(=O)N[C@@H](Cc1c[nH]c2ccccc12)C(=O)N[C@@H](CCCNC(=N)N)C(=O)N[C@@H](CN)C(=O)N[C@@H](CC(N)=O)C(=O)NCC(=O)NCCOCC(=O)N[C@H](CCCCN)C(N)=O)[C@@H](C)O
100 to 1000 nM	COc1ccc(C[C@H](NC(=O)[C@@H](NC(=O)[C@H](CCC(N)=O)NC(=O)[C@H](Cc2c[nH]c3ccccc23)NC(=O)[C@@H](NC(=O)[C@H](CCC(N)=O)NC(=O)[C@@H](NC(C)=O)C(C)(C)S)[C@@H](C)O)C(C)(C)S)C(=O)N[C@@H](Cc2ccc3ccccc3c2)C(=O)N[C@@](C)(CCCCN)C(=O)N[C@@H](CCCCNC(CC(C)C)=C2C(=O)CC(C)(C)CC2=O)C(=O)N[C@@H](CC(N)=O)C(=O)NCC(N)=O)cc1
319 nM	CC(=O)N[C@@H](CS)C(=O)N[C@@H](CCC(N)=O)C(=O)N[C@H](C(=O)N[C@@H](Cc1c[nH]c2ccccc12)C(=O)N[C@@H](CCC(N)=O)C(=O)N[C@@H](CS)C(=O)N[C@@H](Cc1ccc(O)cc1)C(=O)N[C@@H](Cc1c[nH]c2ccccc12)C(=O)N[C@H](CC(C)C)C(=O)N[C@@H](CCC(=O)O)C(=O)N[C@@H](CC(N)=O)C(=O)NCC(N)=O)[C@@H](C)O
500 to 1000 nM	N=C(N)NCCC[C@H](NC(=O)[C@H](Cc1cnc[nH]1)NC(=O)[C@H](Cc1c[nH]c2ccccc12)NC(=O)[C@H](Cc1ccc(O)cc1)NC(=O)[C@H](CS)NC(=O)[C@H](CCC(=O)O)NC(=O)[C@H](Cc1c[nH]c2ccccc12)NC(=O)[C@H](CC(N)=O)NC(=O)[C@@H]1CCCN1C(=O)[C@@H](N)CS)C(=O)N[C@@H](Cc1ccccc1)C(=O)NCC(N)=O (H-CPNWECYWHRFG-NH2)
25 to 100 nM	CC(=O)N[C@@H](CS)C(=O)N[C@@H](C)C(=O)N[C@@H](CC(=O)O)C(=O)N[C@@H](Cc1c[nH]c2ccccc12)C(=O)N[C@H](C(=O)N[C@@H](CS)C(=O)N[C@@H](Cc1ccc(O)cc1)C(=O)N[C@@H](Cc1c[nH]c2ccccc12)C(=O)N[C@@H](Cc1cnc[nH]1)C(=O)N[C@H](C(=O)N[C@@H](Cc1ccccc1)C(=O)NCC(=O)NCCOCC(=O)N[C@H](CCCCNC(=O)COCC(=O)NCCCC[C@@H](NC(=O)COCCNC(=O)CNC(=O)[C@H](Cc1ccccc1)NC(=O)[C@@H](NC(=O)[C@H](Cc1cnc[nH]1)NC(=O)[C@H](Cc1c[nH]c2ccccc12)NC(=O)[C@H](Cc1ccc(O)cc1)NC(=O)[C@H](CS)NC(=O)[C@@H](NC(=O)[C@H](Cc1c[nH]c2ccccc12)NC(=O)[C@H](CC(=O)O)NC(=O)[C@H](C)NC(=O)[C@H](CS)NC(C)=O)C(C)C)[C@@H](C)O)C(=O)O)C(=O)O)[C@@H](C)O)C(C)C
500 to 1000 nM	NC(=O)CNC(=O)[C@H](Cc1ccc(O)cc1)NC(=O)[C@H](Cc1cnc[nH]1)NC(=O)[C@H](Cc1cnc[nH]1)NC(=O)[C@H](Cc1c[nH]c2ccccc12)NC(=O)[C@H](Cc1ccc(O)cc1)NC(=O)[C@H](CS)NC(=O)[C@H](CCC(=O)O)NC(=O)[C@H](Cc1c[nH]c2ccccc12)NC(=O)[C@H](CC(N)=O)NC(=O)[C@H](CO)NC(=O)[C@@H](N)CS (H-CSNWECYWHHYG-NH2)
< 500 nM	CC(=O)N[C@@H](CS)C(=O)N[C@@H](C)C(=O)N[C@@H](CC(=O)O)C(=O)N[C@@H](Cc1c[nH]c2ccccc12)C(=O)N[C@H](C(=O)N[C@@H](CS)C(=O)N[C@@H](Cc1ccc(O)cc1)C(=O)N[C@@H](Cc1c[nH]c2ccccc12)C(=O)N[C@@H](Cc1cnc[nH]1)C(=O)N[C@H](C(=O)N[C@@H](Cc1ccccc1)C(=O)NCC(=O)O)[C@@H](C)O)C(C)C
80 nM	CC(=O)N[C@@H](CS)C(=O)N(C)[C@@H](CCCCN)C(=O)N[C@H](C(=O)N[C@@H](Cc1c[nH]c2ccccc12)C(=O)N[C@@H](CCC(N)=O)C(=O)N[C@@H](CS)C(=O)N[C@@H](Cc1ccc(O)cc1)C(=O)N[C@@H](Cc1c[nH]c2ccccc12)C(=O)N[C@@H](CCCNC(=N)N)C(=O)N[C@H](C(=O)N[C@@H](Cc1ccccc1)C(=O)NCC(=O)NCCOCC(=O)N[C@H](CCCCN)C(N)=O)C(C)C)[C@@H](C)O
< 500 nM	CC(=O)N[C@@H](CS)C(=O)N[C@H](C(=O)N[C@H](C(=O)N[C@@H](Cc1c[nH]c2ccccc12)C(=O)N[C@@H](CCC(=O)O)C(=O)N[C@@H](CS)C(=O)N[C@@H](Cc1ccc(O)cc1)C(=O)N[C@@H](Cc1c[nH]c2ccccc12)C(=O)N[C@@H](Cc1cnc[nH]1)C(=O)N[C@@H](CCC(N)=O)C(=O)N[C@@H](Cc1ccccc1)C(=O)NCC(N)=O)[C@@H](C)O)[C@@H](C)O (Ac-CTTWECYWHQFG-NH2)
